Assay results published in a melting point compilation (Tetko et al.; mined from patent text by program, amines drawn as free bases though some values may be those of a salt).

melting point [°C] | SMILES
195 to 197 | Cc1cc(C)nc(NC(=O)NS(=O)(=O)c2ccccc2C(Cl)Cl)n1
135 to 137 | COc1c2c(cc3ccc(=O)oc13)CC(O)O2 (centres undefined)
161 to 163 | C=CCNc1nc(NCC=C)nc(N(CCCCCCN(c2nc(NCC=C)nc(NCC=C)n2)C2CC(C)(C)NC(C)(C)C2)C2CC(C)(C)NC(C)(C)C2)n1
89 to 90 | OC1(Cn2cncn2)C(Cc2ccc(F)cc2)CCC12CC2 (centres undefined)
136 to 138 | CCC(=O)c1cn(C)cc(-c2cccc(C(F)(F)F)c2)c1=O
51 to 53 | Clc1nccnc1NCCOc1ccccc1
150 | Cc1cccc(Cl)c1NC(=O)CN1CCN(CCCC(c2ccc(F)cc2)c2ccc(F)cc2)C(CO)C1 (centres undefined)
126 to 128 | O=C(C=Cc1ccc(O)c(O)c1)OCCc1ccccc1
197 to 198 | Clc1cc(-c2nnn[nH]2)nc(Cl)c1Cl
106 | CCC1SC(=O)N(Cc2ccc(C(=O)O)cc2)N=C1c1ccc(O)c(O)c1 (centres undefined)
177 to 178 | CC(C)(C)CN(CC(O)C(Cc1ccccc1)NC(=O)C(CC(N)=O)NC(=O)NCc1ccccc1)C(=O)NC(C)(C)C (centres undefined)
144 to 146 | COc1ccc(NC(=O)C(=O)N2CCC(Cc3ccccc3)CC2)cc1
80 to 82 | CCN(CC)CCNC(=O)c1cccc2cc3ccc(I)cc3nc12
121 to 124 | CCCCc1nc2c(N)nc3ccccc3c2n1CCCCCCCCNS(C)(=O)=O
156 to 158 | COc1nc2ccccc2cc1NC(=O)N1CCN(c2ccccc2F)CC1
214 to 216 | COc1nccc(C(F)(F)F)c1S(=O)(=O)Nc1nc2c(OC)cnc(OC)n2n1
220 to 221 | CC(C)c1n[nH]c2c(NCc3cccc(O)c3)ncnc12
183 to 184 | Cc1ccc(-c2ccc3c(c2)C=C(C(=O)Nc2ccc(CNC4CCCCC4)cc2)CCO3)cc1
276 to 278 | COc1cccc2sc(C3(c4ccc(S(N)(=O)=O)cc4)C=C(C(F)(F)F)NN3)nc12 (centres undefined)
155 to 158 | COc1ccccc1N(CCN1CCC(C(=O)c2ccc(F)cc2)CC1)C(=O)c1ccc(C#N)cc1
146 | O=C(Nc1ccccc1C(F)(F)F)c1ccccc1
125 to 127 | CCCCOCCOc1ccc(-c2ccc(N3CCCC(C)C3)c(C=CC(=O)O)c2)cc1 (centres undefined)

melting point [°C] | SMILES
79 to 80 | CCCCC(C)n1ncc(-c2ccc(S(C)(=O)=O)cc2)c(-c2ccc(F)cc2)c1=O (centres undefined)
77 to 79 | Brc1ccc(Cn2cncn2)cc1
289 to 290 | COc1cc(OC)c2c(=O)[nH]c(-c3cccc(-c4ccc(S(C)=O)s4)c3)nc2c1 (centres undefined)
109 to 110 | COC(=O)C(C)(C)S(=O)(=O)N1CCC(c2ccc(-n3ccc(OC)n3)c(C)c2)CC1
65 to 66 | Fc1ccc(C2CN(C(c3ccccc3)c3ccccc3)C2)cc1
163 to 164 | Cc1c(N2CC[C@H](CNC3CC3)C2)c(F)cc2c(=O)c(C(=O)O)cn([C@@H]3C[C@@H]3F)c12
233 to 235 | OC(c1cn(C(c2ccccc2)(c2ccccc2)c2ccccc2)cn1)c1cc(Cl)cc2c1OCOC2 (centres undefined)
113 to 114 | CSc1c(SC)c(OC(C)=O)c2cc(Cl)ccc2c1OC(C)=O
202 | Nc1nc2c(ncn2COCCCP(=O)(O)O)c(=O)[nH]1
210 | Cc1cccc(Oc2c[nH]c(=S)[nH]c2=O)c1
114 to 115 | CCc1n[nH]c(CC)c1Oc1cc(Cl)cc(Cl)c1
> 220 | CC(C)NC1=NS(=O)(=O)c2cc(Br)ccc2N1
235 to 237 | COc1cc(N)c(Cl)cc1C(=O)NC1CCN(CC2CCN(C(=O)C3CCOCC3)CC2)CC1
87 to 90 | O=Cc1ccccc1NC1CCN(Cc2ccccc2)CC1
156 to 157 | C#Cc1cc(C=Cc2cc(C(C)(C)C)cc(C(C)(C)C)c2)cc(C=Cc2cc(C(C)(C)C)cc(C(C)(C)C)c2)c1
136 to 139 | CCCCc1oc2ccccc2c1C(=O)Nc1ccc2c(Br)c(OC(Cc3ccccc3)C(=O)OC)ccc2c1 (centres undefined)
116 to 118 | O=C(C=Cc1ccccc1)c1ccc(OCc2ccccc2)cc1O
195 to 198 | CNC1(C2CCCCC2)C(=O)Nc2ccc(Cl)cc21 (centres undefined)
122 to 123 | COc1ccc(S(=O)(=O)NCCc2ccc(C(C)=O)cc2)cc1
90 to 92 | CC(C)(C)CNc1nc(C#Cc2ccccc2)ccc1[N+](=O)[O-]
200 to 203 | Cc1cc2c(cc1F)N(C(N)=O)C(=O)C2
147 to 150 | CN1CCC(c2c[nH]c3ccc(Sc4ccccc4)cc23)CC1

melting point [°C] | SMILES
148 to 149 | O=C(c1ccc(F)c(F)c1)N1CCCC(c2noc(-c3ncc[nH]3)n2)C1 (centres undefined)
69 to 70 | COc1cc([N+](=O)[O-])c(F)cc1Cl
105 to 107 | Fc1cc2cc[nH]c2cc1Cl
187 | O=C(Nc1ccccc1)N1CC2CC(CN(Cc3ccc(Cl)cc3)C2)C1
125 to 126 | CCC(NS(C)(=O)=O)c1ccc(Cl)c2nc3n(c12)CCCN3c1ccc(Cl)cc1Cl (centres undefined)
158 to 160 | CCOC(=O)c1c(CCc2ccc(C(F)(F)F)cc2)nc2c(c1-c1ccc(C(=O)N[C@@H](C)c3ccncc3)cc1)C(=O)N1CCC[C@@H]21
185 to 187 | Oc1ccc2nc(-c3cccc4ccccc34)oc2c1
119 to 121 | CN1CCC(c2c[nH]c3ccc(NC(=O)C4CCCC4)nc23)CC1
180 to 182 | Cn1c(-c2ccc(-c3ccccc3)cc2)cnc1[C@H](Cc1ccccn1)N(C=O)c1cc2cc(Br)ccc2o1
166 to 168 | COc1ccc(C(=O)N2c3ccccc3C(N3CCSc4ccccc43)=CC2C)cc1OC (centres undefined)
234 to 235 | Cc1ccc(NC(=O)c2cccc(CN3C(=O)C4(COc5cc6c(cc54)CCO6)c4ccccc43)c2)c(C)c1 (centres undefined)
68 to 69.9 | CCOP(=O)(OCC)c1c(-c2c(OC)ccc3ccccc23)cc2c(c1C)COC2
360 | NS(=O)(=O)c1cccc2c1c([N+](=O)[O-])cc1nc(O)c(O)nc12
202 to 204 | Cc1ccc(S(=O)(=O)OCC2COc3ccc4[nH]c(=O)[nH]c4c3O2)cc1 (centres undefined)
198 to 201 | CCC1(Cl)NN=C2C=Nc3cc(Cl)c(Cl)cc3N21 (centres undefined)
241 to 243 | O=C(CBr)Nc1ccc(C(=O)O)cc1
103 | CC#Cc1ccc(-c2ccc(-c3ccc(CCCCC)cc3)c(F)c2F)cc1
> 300 | CC1CCc2c(O)ccc3c(=O)c(C(=O)O)cn1c23 (centres undefined)
135 to 136 | CCOC(=O)/C(=N\OCC=C(Cl)Cl)c1csc(N)n1
90 to 92 | O=C1CC2(CCCC2)CC(=O)N1CCCCN(c1ccncc1)n1c2ccccc2c2ccccc21
157 to 159 | Cc1c(-c2ccc(=O)n(C)c2)cccc1[N+](=O)[O-]

SMILES | melting point [°C]
CC(C)CCCOC1CCC2C3C(=O)C=C4CC(O[Si](C)(C)C(C)(C)C)CCC4(C)C3CCC12C (centres undefined) | 143 to 145
O=C1CN=C(c2ccccc2)c2cc(C(c3ccc(Cl)cc3)n3ccnc3)ccc2N1 (centres undefined) | 144
CNC(=O)ON=C1SCS(=O)CS1 (centres undefined) | 175 to 177
CCCN(CCC)C1Cc2c[nH]c3ccc(C(=O)C(C)C)c(c23)C1 (centres undefined) | 128
